We go through five molecules from patent publication US11541056B2, “3-hydroxy-N-(3-(7H-pyrrolo[2,3-d]pyrimidin-4-yl)phenyl)pyrrolidine-1-carboxamide derivatives” (NOVARTIS AG, priority 2018, dated 2023).

Holding throughout (assay type): cell-based
One experiment deals with OCI-LY3 cells. The experiment is described as follows: Resazurin cell viability assay in DLBCL cells (OCI-LY3). The settings on record: Homo sapiens, OCI-Ly3, 72 h, OCI-LY3 cells (BTK independent), 50% growth inhibition, read-out: OCI-LY3 Prol GI50. How it is done: (§1) Compounds of the invention were tested in the following cellular assays. The terms in Table 1 are defined as follows: DC50 refers to the concentration at which 50% maximal degradation was observed; deg Amax is the extent of degradation and the value refers to the % protein remaining at the concentration at which maximum degradation is seen; Prol GI50 refers to the proliferation data and defines the concentration at which 50% growth inhibition was observed compared to the vehicle treated control at the end of the incubation time. TMD8 cells are BTK dependent and OCI-LY3 cells are BTK independent.
(§2) Cell Viability Assay in DLBCL (Diffuse Large B-Cell Lymphoma) Cells:
(§3) The effect of the BTK compounds on cell proliferation was measured by a Resazurin (Sigma, #R7017) based cell viability assay. TMD8 (BTK compound sensitive) and OCI-LY3 (BTK compound insensitive) cells were incubated for 72 h at 37° C. and 5% CO2 with the corresponding compound. Resazurin is a non-toxic, cell-permeable substrate that is virtually non-fluorescent. Upon entering living cells, Resazurin (Sigma, #R7017) is reduced to highly fluorescent Resorufin. The metabolic activity was assessed by measuring the fluorescence signal (ex. 530 nm; em. 600 nm).
(§4) TMD8 and OCI-Ly3 cells were seeded at day 0 in triplicates at a cell density of 1×10^4 cells per 150 μl/well in a 96-well plate (Costar #3904). Additional plates were prepared, in order to assess the basal metabolic activity of both cell lines at the beginning of the experiment. For these reference plates, Resazurin (Sigma, #R7017) was added to a final concentration of 13 μg/ml 3 h post seeding and was incubated for 2 h at 37° C. and 5% CO2. Following incubation, the fluorescent signal intensity of the 96-well plates was measured on a Mithras LB940 multimode plate reader at 530/600 nm (Berthold Technologies, Germany).
(§5) In parallel, 3 h post-seeding, test-plates were treated with compound at various concentrations, or with vehicle (DMSO) alone for 3 days. The compound addition to the plates was performed by using a HP D300 digital dispenser (TECAN, Switzerland). The compounds were tested in triplicate, 8-point serial dilution (1:4), with a start concentration of 10 μM for OCI-LY3 and 1 μM for the TMD8 cells, respectively. To assess the relative proliferation of the cells, Resazurin was added to each well directly to the medium to a final concentration of 13 μg/ml. The plates were incubated for 2 h at 37° C. and 5% CO2 to result in a 72 h endpoint. Following incubation, the fluorescent signal intensity of the 96-well plates were measured on a Mithras LB940 multimode plate reader at 530/600 nm (Berthold Technologies, Germany). The formation of Resorufin dye directly correlates with the number of metabolically active cells. For each triplicate treatment the mean and standard deviation were calculated and analyzed via curve fitting software to determine the respective compound concentration resulting in 50% growth inhibition (GI50) values. For each compound GI50 values were typically determined from at least 2 entirely independent experiments.
OCI-LY3 cells were acquired through a license agreement with University Health Network, Toronto, Canada. Cells are cultivated in RPMI1640 media (Gibco, #61870-010, lot. 1894759), supplemented with 10% FCS (HyClone, GE #SH30066.03, lot AB217603), 2 mM L-Glutamine (BioConcept, #5-10K50-H, lot. LA03467P), 1 mM Sodium Pyruvate (BioConcept, #5-60F00-H, lot. LB10510P), 10 mM HEPES (Gibco, #15630-056, lot. 1854074), 1% Pen/Strep (BioConcept, #4-01F00-H, lot. LB04235P).
On the technique in general: Resazurin is reduced to fluorescent resorufin, in cell work by metabolically active cells.

The next experiment concerns TMD8 cells. The experiment is described as follows: Resazurin cell viability assay in DLBCL cells (TMD8). The settings on record: Homo sapiens, TMD8, 72 h, TMD8 cells (BTK dependent), 50% growth inhibition, read-out: TMD8 Prol GI50. Here is the method:
as §1, §2, §3, §4, §5
TMD8 cells were acquired through a license agreement with Tokyo Medical and Dental University, Japan. Cells are cultivated in MEM Alpha (BioConcept, #1-23F01-I, lot. LB04262P) supplemented with 10% FCS (HyClone, GE #SH30066.03, lot AB217603), 2 mM L-Glutamine (BioConcept, #5-10K50-H, lot. LA03467P), 1% Pen/Strep (BioConcept, #4-01F00-H, lot. LB04235P).

For the next experiment, the target named is T1, BTK-GFP (Homo sapiens, UniProt Q06187+Q96SW2).
T1 construct: the BTK open reading frame (ORF) was first shuttled from a pcDNA-DEST40-BTK vector (Invitrogen library ID INV_20090504v1); expressed in transfected cells; host or cells: HEK293A cells (Invitrogen R70507), lentiviral transduction with pLenti6-BTK-GFP-Ires-RFP, blasticidin-selected
T1 sequence (Q06187 whole entry): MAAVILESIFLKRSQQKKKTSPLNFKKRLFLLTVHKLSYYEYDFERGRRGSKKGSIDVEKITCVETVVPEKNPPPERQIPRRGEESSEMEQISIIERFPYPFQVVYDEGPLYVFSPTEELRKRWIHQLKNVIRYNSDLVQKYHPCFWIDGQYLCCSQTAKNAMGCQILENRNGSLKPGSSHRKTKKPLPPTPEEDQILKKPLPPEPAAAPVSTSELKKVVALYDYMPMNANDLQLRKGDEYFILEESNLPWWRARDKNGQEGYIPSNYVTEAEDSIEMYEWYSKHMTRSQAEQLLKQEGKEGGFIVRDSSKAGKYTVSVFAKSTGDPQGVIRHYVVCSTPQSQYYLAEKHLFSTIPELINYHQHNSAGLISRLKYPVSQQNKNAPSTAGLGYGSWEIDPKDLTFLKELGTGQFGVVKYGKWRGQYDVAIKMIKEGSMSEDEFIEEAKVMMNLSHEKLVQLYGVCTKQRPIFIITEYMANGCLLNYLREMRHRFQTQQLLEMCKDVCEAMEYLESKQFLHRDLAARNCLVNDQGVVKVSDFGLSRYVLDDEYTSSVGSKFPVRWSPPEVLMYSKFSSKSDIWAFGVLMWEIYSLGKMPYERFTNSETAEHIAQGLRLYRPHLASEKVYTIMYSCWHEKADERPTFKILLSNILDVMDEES
T1 sequence (Q96SW2 whole entry): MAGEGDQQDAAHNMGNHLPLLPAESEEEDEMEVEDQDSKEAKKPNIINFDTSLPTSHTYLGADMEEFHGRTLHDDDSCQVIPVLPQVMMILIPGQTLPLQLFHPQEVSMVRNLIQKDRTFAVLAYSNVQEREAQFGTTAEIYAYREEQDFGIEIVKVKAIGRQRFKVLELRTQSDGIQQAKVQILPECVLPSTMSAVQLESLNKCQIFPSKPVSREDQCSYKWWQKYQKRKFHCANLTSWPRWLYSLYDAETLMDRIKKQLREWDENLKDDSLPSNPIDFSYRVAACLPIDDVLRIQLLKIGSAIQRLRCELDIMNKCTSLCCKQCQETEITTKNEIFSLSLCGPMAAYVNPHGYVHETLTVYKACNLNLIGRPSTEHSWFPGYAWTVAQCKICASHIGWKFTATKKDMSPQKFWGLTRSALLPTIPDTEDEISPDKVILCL
T1 sequence (Q16531 whole entry partner): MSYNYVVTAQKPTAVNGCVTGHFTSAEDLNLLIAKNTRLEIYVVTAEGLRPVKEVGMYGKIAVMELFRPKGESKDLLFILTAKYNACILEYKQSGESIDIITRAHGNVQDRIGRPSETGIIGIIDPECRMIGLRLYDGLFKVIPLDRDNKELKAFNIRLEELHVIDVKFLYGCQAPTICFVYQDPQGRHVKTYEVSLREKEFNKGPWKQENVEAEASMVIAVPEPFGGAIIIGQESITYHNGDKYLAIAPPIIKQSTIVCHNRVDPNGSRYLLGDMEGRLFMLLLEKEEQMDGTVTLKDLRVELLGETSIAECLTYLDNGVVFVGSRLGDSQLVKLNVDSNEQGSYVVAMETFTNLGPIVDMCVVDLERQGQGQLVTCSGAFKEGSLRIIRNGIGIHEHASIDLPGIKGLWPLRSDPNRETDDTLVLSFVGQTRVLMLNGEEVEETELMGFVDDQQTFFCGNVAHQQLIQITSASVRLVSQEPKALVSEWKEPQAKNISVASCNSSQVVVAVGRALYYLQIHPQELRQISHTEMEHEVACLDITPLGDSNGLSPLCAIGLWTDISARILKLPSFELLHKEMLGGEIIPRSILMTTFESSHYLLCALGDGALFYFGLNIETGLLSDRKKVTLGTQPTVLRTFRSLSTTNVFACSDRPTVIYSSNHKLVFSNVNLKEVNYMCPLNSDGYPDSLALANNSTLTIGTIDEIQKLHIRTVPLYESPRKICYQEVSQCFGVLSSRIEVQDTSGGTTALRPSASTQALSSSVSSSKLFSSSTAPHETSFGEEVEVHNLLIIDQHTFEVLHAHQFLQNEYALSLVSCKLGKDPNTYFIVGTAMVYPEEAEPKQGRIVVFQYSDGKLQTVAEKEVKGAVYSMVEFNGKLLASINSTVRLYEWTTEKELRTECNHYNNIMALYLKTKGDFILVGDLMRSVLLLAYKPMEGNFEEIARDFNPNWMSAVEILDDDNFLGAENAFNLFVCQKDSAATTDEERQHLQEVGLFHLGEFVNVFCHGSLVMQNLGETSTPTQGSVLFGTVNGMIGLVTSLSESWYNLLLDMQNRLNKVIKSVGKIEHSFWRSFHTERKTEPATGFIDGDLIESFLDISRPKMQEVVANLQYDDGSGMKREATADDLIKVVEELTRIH
The experiment is described as follows: BTK-GFP protein abundance flow cytometry assay in HEK293A cells. The settings on record: 24 h; for BTK deg Amax %: % protein remaining at concentration of maximum degradation; for DC50: concentration at which 50% maximal degradation was observed. Here is the method: as §1
(§6) BTK-GFP and IKZF3-GFP Protein Abundance Flow Cytometry Assay in HEK293A Cells:
(§7) Degradation of BTK or IKZF3 was measured in HEK293A cells (Invitrogen R70507) expressing either BTK-GFP and RFP or IKZF3-GFP and RFP from a stably integrated bicistronic BTK-GFP-iresRFP or IKZF3-GFP-iresRFP construct, respectively. Reduction of the GFP signal measured by flow cytometry served as readout for BTK or IKZF3 degradation after degrader treatment.
(§8) Stable HEK293A-BTK-GFP-iresRFP cells were maintained in complete growth medium (DMEM high Glucose+10% FCS+1% L-Glutamine+1% NEAA+1% NaPyr.) with passaging performed twice per week. On Day 0, HEK293A-BTK-GFP-iresRFP or HEK293A-IKZF3-GFP-iresRFP and HEK293A-iresRFP cells were seeded at 10,000 cells/well in a 96-well microtiter plate in 260 μl complete medium. On Day 1, cells were treated in duplicate with 10-point 1:3 dilution series of compound using the HP D300 Digital Dispenser (Tecan). DMSO concentrations were normalized across the plate to 0.1%. On Day 2, after 24 h of incubation at 37° C., treatment media was discarded, cells rinsed with 100 ul/well PBS and then detached using 40 ul trypsin/well for 5 min. Trypsin was neutralized with 100 ul/well PBS+20% FCS). Flow cytometry was performed on the samples using the BD FACS CANTO II (Becton Dickinson). Cell identification was then performed using forward (FSC) vs. side scatter (SSC) plots. Single cell discrimination is performed using SSC-Width (SSC-W) vs. SSC-Height (SSC-H) plots. Median GFP values for 5,000 single cells are used to determine BTK levels. Median GFP values from HEK293A-iresRFP are used as a background signal and thus defining 0% BTK signal. Median GFP values from DMSO treated HEK293A-BTK-GFP-iresRFP or HEK293A-IKZF3-GFP-iresRFP are used to define 100% BTK signal for subsequent DC50 curves (concentration at 50% BTK degradation). GFP and RFP are read in the channels called FITC and PE, respectively.
(§9) Concentration response curves plotting relative reduction of the GFP signal (measured by flow cytometry) versus 10 compound concentrations (starting concentration 10 μM, 3 fold dilution steps) of the compounds allowed generation of DC50 values.
Background: In flow cytometry, cells or beads pass a laser one at a time.

A further experiment has as its target T2, IKZF3-GFP (Homo sapiens, UniProt Q9UKT9).
T2 construct: gateway cloning of IKZF3 from a pENTR221-IKZF3(STOP-Leu) construct into the previously described pLenti6-DEST-GFP-Ires-RFP vector; expressed in transfected cells; host or cells: HEK293A cells (Invitrogen R70507), lentiviral transduction with pLenti6-IKZF3-GFP-Ires-RFP, blasticidin-selected
The experiment is described as follows: IKZF3-GFP protein abundance flow cytometry assay in HEK293A cells. The settings on record: 24 h, Table 1. Here is the method:
Compounds of the invention were tested in the following cellular assays. […] TMD8 cells are BTK dependent and OCI-LY3 cells are BTK independent.
as §6, §7, §8, §9
Data is shown in Table 2, in which, DC50 refers to the concentration at which 50% maximal degradation was observed; deg Amax is the extent of degradation and the value refers to the % protein remaining at the concentration at which maximum degradation is seen.

T2 sequence (Q96SW2 whole entry partner): as the sequence (Q96SW2 whole entry) above
T2 sequence (Q16531 whole entry partner): as the sequence (Q16531 whole entry partner) above
T2 sequence (Q9UKT9 whole entry): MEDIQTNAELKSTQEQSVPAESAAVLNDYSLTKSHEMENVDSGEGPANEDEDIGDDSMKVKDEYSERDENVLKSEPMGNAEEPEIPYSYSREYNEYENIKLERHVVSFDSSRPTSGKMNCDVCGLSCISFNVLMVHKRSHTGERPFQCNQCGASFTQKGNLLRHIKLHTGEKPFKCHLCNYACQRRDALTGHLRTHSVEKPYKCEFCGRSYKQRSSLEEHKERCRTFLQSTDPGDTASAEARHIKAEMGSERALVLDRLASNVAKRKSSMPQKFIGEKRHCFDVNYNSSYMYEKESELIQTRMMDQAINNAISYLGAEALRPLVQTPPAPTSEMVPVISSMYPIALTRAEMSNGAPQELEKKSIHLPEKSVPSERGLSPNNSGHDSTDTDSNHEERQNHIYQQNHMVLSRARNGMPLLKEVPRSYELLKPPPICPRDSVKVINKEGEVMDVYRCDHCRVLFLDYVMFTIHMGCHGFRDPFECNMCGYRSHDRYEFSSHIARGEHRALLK

For `COc1ccc(C(=O)N2CCC(CN3CCN(Cc4ccc(-c5cc6c(-c7cc(F)cc(NC(=O)N8C[C@@H](CC(C)C)[C@H](O)C8)c7C)ncnc6[nH]5)cc4)CC3)CC2)cc1N1CCC(=O)NC1=O` [Compound 10, (3S,4R)—N-(3-(6-(4-((4-((1-(3-(2,4-Dioxotetrahydropyrimidin-1(2H)-yl)-4-methoxybenzoyl)piperidin-4-yl)methyl)piperazin-1-yl)methyl)phenyl)-7H-pyrrolo[2,3-d]pyrimidin-4-yl)-5-fluoro-2-methylphenyl)-3-hydroxy-4-isobutylpyrrolidine-1-carboxamide], the GI50 – broadly, the concentration at which growth is held to half of that of the control – worked out at 4.08 µM in the experiment with OCI-LY3 cells and 2.31 nM in the experiment with TMD8 cells. The “BTK deg Amax %” value at BTK-GFP amounted to 7.4%. The DC50 on BTK-GFP was 15.5 nM; on IKZF3-GFP it was greater than 370 nM. The “IKZF3 deg Amax %” value at IKZF3-GFP (% protein remaining at maximum degradation) stood at 99.3%.

Consider `CCOc1ccc(C(=O)N2CCC3(CCN(CCc4ccc(-c5cc6c(-c7cc(F)cc(NC(=O)N8C[C@H](CC(C)C)[C@@H](O)C8)c7C)ncnc6[nH]5)cc4)CC3)CC2)cc1N1CCC(=O)NC1=O` [Compound 16, (3R,4S)—N-(3-(6-(4-(2-(9-(3-(2,4-dioxotetrahydropyrimidin-1(2H)-yl)-4-ethoxybenzoyl)-3,9-diazaspiro[5.5]undecan-3-yl)ethyl)phenyl)-7H-pyrrolo[2,3-d]pyrimidin-4-yl)-5-fluoro-2-methylphenyl)-3-hydroxy-4-isobutylpyrrolidine-1-carboxamide], for which the GI50 in the experiment on OCI-LY3 cells was 5.22 µM. The GI50 in the experiment with TMD8 cells was found to be 0.26 nM. Also, on BTK-GFP, the “BTK deg Amax %” value stood at 19% and the DC50 is 4.7 nM.

For `COc1ccc(C(=O)N2CCC3(CCN(CCc4ccc(-c5cc6c(-c7ccc(F)c(NC(=O)N8C[C@H](CC(C)C)[C@@H](O)C8)c7C)ncnc6[nH]5)cc4)CC3)CC2)cc1N1CCC(=O)NC1=O` [Compound 17, (3R,4S)—N-(3-(6-(4-(2-(9-(3-(2,4-dioxotetrahydropyrimidin-1(2H)-yl)-4-methoxybenzoyl)-3,9-diazaspiro[5.5]undecan-3-yl)ethyl)phenyl)-7H-pyrrolo[2,3-d]pyrimidin-4-yl)-6-fluoro-2-methylphenyl)-3-hydroxy-4-isobutylpyrrolidine-1-carboxamide], the GI50 in the experiment with OCI-LY3 cells was greater than 10 µM. In the experiment on TMD8 cells, the GI50 came to 0.49 nM. Further, at BTK-GFP, the “BTK deg Amax %” value is 4% and the DC50 worked out at 5.5 nM.

With `COc1ccc(C(=O)N2CCC(OCCN3CCC(Oc4ccc(-c5cc6c(-c7cc(F)cc(NC(=O)N8C[C@H](CC(C)C)[C@@H](O)C8)c7C)ncnc6[nH]5)cc4)CC3)CC2)cc1N1CCC(=O)NC1=O` [Compound 20, (3R,4S)—N-(3-(6-(4-((1-(2-((1-(3-(2,4-Dioxotetrahydropyrimidin-1(2H)-yl)-4-methoxybenzoyl)piperidin-4-yl)oxy)ethyl)piperidin-4-yl)oxy)phenyl)-7H-pyrrolo[2,3-d]pyrimidin-4-yl)-5-fluoro-2-methylphenyl)-3-hydroxy-4-isobutylpyrrolidine-1-carboxamide], the GI50 in the experiment on OCI-LY3 cells was found to be 3.7 µM. The GI50 in the experiment on TMD8 cells was 0.29 nM. For the same molecule, at BTK-GFP, the “BTK deg Amax %” value is recorded as 2.4% and the DC50 amounted to 1.1 nM.

`COc1ccc(C(=O)N2CCC(CCN3CCC(OCc4ccc(-c5cc6c(-c7cc(F)cc(NC(=O)N8C[C@@H](CC(C)C)[C@H](O)C8)c7C)ncnc6[nH]5)cc4)CC3)CC2)cc1N1CCC(=O)NC1=O` [Compound 21, (3S,4R)—N-(3-(6-(4-(((1-(2-(1-(3-(2,4-Dioxotetrahydropyrimidin-1 (2H)-yl)-4-methoxybenzoyl)piperidin-4-yl)ethyl)piperidin-4-yl)oxy)methyl)phenyl)-7H-pyrrolo[2,3-d]pyrimidin-4-yl)-5-fluoro-2-methylphenyl)-3-hydroxy-4-isobutylpyrrolidine-1-carboxamide]: the GI50 in the experiment with OCI-LY3 cells turned out to be 3.6 µM. Also, the GI50 with TMD8 cells was found to be 1.17 nM. Also, at BTK-GFP, the “BTK deg Amax %” value worked out at 4% and the DC50 is 15.6 nM.
